Holding throughout (assay): cAMP activity assay in assay medium (assay 1)
Holding throughout (assay type): cell-based

The target in test [1] is T1, Human GIPr (Homo sapiens, UniProt P48546).
T1 construct: expressed in transfected cells
T1 sequence (P48546 22-466): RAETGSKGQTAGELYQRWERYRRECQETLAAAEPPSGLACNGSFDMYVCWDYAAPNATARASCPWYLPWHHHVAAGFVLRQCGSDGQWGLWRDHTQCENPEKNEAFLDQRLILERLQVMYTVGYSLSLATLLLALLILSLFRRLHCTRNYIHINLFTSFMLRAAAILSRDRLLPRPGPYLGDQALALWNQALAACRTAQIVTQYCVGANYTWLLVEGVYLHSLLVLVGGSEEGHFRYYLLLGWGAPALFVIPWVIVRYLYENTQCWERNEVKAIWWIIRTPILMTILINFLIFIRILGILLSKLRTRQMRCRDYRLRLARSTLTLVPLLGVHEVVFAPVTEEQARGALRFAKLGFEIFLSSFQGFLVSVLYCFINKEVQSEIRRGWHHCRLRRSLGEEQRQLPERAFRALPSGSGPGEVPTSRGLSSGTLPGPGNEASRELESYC
As to conditions: assay medium; Table 4; read-out: hGIPR EC50. The text has this:
(§1) Biological Activity of Peptides in Cell-Based cAMP Activity Assay (Assay 1):
(§2) All sample dilutions were made in duplicate.

Test [2] concerns the target T2, Human GlucR (Homo sapiens, UniProt P47871).
T2 construct: expressed in transfected cells
Particulars: assay medium; Table 4; read-out: hGlucR EC50.
Text: as §1, §2

Test [3] addresses Human GLP1R (Homo sapiens, UniProt P43220). On the set-up: expressed in transfected cells. As to conditions: assay medium; Table 4; read-out: hGLP1R EC50.
Text: as §1, §2

Numbered stars: 1 amine (or outer) side, 2 acyl side, 3 side chain; on linkers, the order of the positions; unused ones are H or OH. Side chains are listed from the residue outwards. Peptide text beside a SMILES is read from it. * marks the point of attachment. γGlu = O=C(O)[C@H](CCC(=O)[*:2])N[*:1]; Palmitoyl = CCCCCCCCCCCCCCCC(=O)*; Ahx = NCCCCCC(=O)O; βAla = NCCC(=O)O

T2 sequence (P47871 26-477): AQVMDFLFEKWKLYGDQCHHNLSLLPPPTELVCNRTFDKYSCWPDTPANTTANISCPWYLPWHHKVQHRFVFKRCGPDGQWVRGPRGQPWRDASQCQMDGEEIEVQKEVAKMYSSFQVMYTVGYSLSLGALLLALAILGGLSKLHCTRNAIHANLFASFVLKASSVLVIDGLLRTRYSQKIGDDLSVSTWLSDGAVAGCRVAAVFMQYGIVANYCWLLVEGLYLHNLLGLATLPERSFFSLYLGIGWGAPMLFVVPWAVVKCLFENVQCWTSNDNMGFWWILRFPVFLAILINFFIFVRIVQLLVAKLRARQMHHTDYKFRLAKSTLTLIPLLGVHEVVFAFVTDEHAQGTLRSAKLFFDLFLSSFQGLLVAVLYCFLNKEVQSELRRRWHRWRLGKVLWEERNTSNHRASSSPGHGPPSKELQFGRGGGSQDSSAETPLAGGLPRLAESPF
Human GLP1R, sequence (P43220 24-463): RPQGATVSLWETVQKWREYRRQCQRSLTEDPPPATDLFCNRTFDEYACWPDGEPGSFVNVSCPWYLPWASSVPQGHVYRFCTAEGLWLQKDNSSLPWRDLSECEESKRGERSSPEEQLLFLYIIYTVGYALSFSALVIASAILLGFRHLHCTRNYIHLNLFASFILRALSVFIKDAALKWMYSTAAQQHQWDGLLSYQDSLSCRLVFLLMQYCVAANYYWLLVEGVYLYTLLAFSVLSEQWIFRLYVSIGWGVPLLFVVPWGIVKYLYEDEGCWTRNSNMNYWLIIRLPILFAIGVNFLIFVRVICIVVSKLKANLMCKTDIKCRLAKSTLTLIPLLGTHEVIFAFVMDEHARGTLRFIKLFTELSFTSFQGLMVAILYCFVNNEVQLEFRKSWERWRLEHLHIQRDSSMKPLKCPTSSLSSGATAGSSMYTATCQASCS

`CCCCCCCCCCCCCCCC(=O)N[C@@H](CCC(=O)NCCCC[C@H](NC(=O)[C@H](CO)NC(=O)[C@H](CC(=O)O)NC(=O)[C@H](CC(C)C)NC(=O)[C@H](Cc1ccc(O)cc1)NC(=O)[C@H](CCCCN)NC(=O)[C@H](CO)NC(=O)[C@H](Cc1ccc(O)cc1)NC(=O)[C@H](CC(=O)O)NC(=O)[C@H](CO)NC(=O)[C@@H](NC(=O)[C@H](Cc1ccccc1)NC(=O)[C@@H](NC(=O)CNC(=O)[C@H](CCC(N)=O)NC(=O)[C@H](CO)NC(=O)[C@@H](N)Cc1c[nH]cn1)[C@@H](C)O)[C@@H](C)O)C(=O)N[C@@H](CCCNC(=N)N)C(=O)N[C@@H](C)C(=O)N[C@@H](CCCNC(=N)N)C(=O)N[C@@H](CC(=O)O)C(=O)N[C@@H](Cc1ccccc1)C(=O)N[C@H](C(=O)N[C@@H](CCC(=O)O)C(=O)N[C@@H](Cc1c[nH]c2ccccc12)C(=O)N[C@@H](CC(C)C)C(=O)N[C@H](C(=O)N[C@@H](C)C(=O)NCC(=O)NCC(N)=O)C(C)C)C(C)C)C(=O)O` [g766] (H-HSQGTFTSDYSKYLDSK([γGlu-Palmitoyl])RARDFVEWLVAGG-NH2; N-terminus assumed): the EC50 (as a rule, the midpoint of the concentration-response curve) in test [1] came to 47.9 nM; in test [2], 0.00465 nM; in test [3], 0.0702 nM.

On to `CCCCCCCCCCCCCCCC(=O)NCCCCCC(=O)NCCCC[C@H](NC(=O)[C@H](CO)NC(=O)[C@H](CC(=O)O)NC(=O)[C@H](CC(C)C)NC(=O)[C@H](Cc1ccc(O)cc1)NC(=O)[C@H](CCC(=O)O)NC(=O)[C@H](CO)NC(=O)[C@H](Cc1ccc(O)cc1)NC(=O)[C@H](CC(=O)O)NC(=O)[C@H](CO)NC(=O)[C@@H](NC(=O)[C@H](Cc1ccccc1)NC(=O)[C@@H](NC(=O)CNC(=O)[C@H](CCC(N)=O)NC(=O)[C@H](CO)NC(=O)[C@@H](N)Cc1c[nH]cn1)[C@@H](C)O)[C@@H](C)O)C(=O)N[C@@H](CCCNC(=N)N)C(=O)N[C@@H](C)C(=O)N[C@@H](CCCNC(=N)N)C(=O)N[C@@H](CC(=O)O)C(=O)N[C@@H](Cc1ccccc1)C(=O)N[C@H](C(=O)N[C@@H](CCC(=O)O)C(=O)N[C@@H](Cc1c[nH]c2ccccc12)C(=O)N[C@@H](CC(C)C)C(=O)N[C@@H](CCC(=O)O)C(=O)N[C@@H](CCCNC(=N)N)C(=O)NCC(=O)NCC(N)=O)C(C)C` [g771] (H-HSQGTFTSDYSEYLDSK([Ahx-Palmitoyl])RARDFVEWLERGG-NH2; N-terminus assumed), for which the figures for the EC50 in test [1], in test [2] and in test [3] were 37.1 nM, 0.00551 nM and 0.0175 nM, respectively.

Take `CCCCCCCCCCCCCCCC(=O)N[C@@H](CCC(=O)NCCCC[C@H](NC(=O)[C@H](CO)NC(=O)[C@H](CC(=O)O)NC(=O)[C@H](CC(C)C)NC(=O)[C@H](Cc1ccc(O)cc1)NC(=O)[C@H](CCC(=O)O)NC(=O)[C@H](CO)NC(=O)[C@H](Cc1ccc(O)cc1)NC(=O)[C@H](CC(=O)O)NC(=O)[C@H](CO)NC(=O)[C@@H](NC(=O)[C@H](Cc1ccccc1)NC(=O)[C@@H](NC(=O)CNC(=O)[C@H](CCC(N)=O)NC(=O)[C@H](CO)NC(=O)[C@@H](N)Cc1c[nH]cn1)[C@@H](C)O)[C@@H](C)O)C(=O)N[C@@H](CCCNC(=N)N)C(=O)N[C@@H](C)C(=O)N[C@@H](CCCNC(=N)N)C(=O)N[C@@H](CC(=O)O)C(=O)N[C@@H](Cc1ccccc1)C(=O)N[C@H](C(=O)N[C@@H](C)C(=O)N[C@@H](Cc1c[nH]c2ccccc12)C(=O)N[C@@H](CC(C)C)C(=O)N[C@@H](CCC(=O)O)C(=O)N[C@@H](CCCNC(=N)N)C(=O)NCC(=O)NCC(N)=O)C(C)C)C(=O)O` [g772] (H-HSQGTFTSDYSEYLDSK([γGlu-Palmitoyl])RARDFVAWLERGG-NH2; N-terminus assumed): the EC50 came to 1540 nM in test [1], 0.184 nM in test [2] and 0.292 nM in test [3].

`CCCCCCCCCCCCCCCC(=O)N[C@@H](CCC(=O)NCCCC[C@H](NC(=O)[C@H](Cc1ccc(O)cc1)NC(=O)[C@H](CCCCN)NC(=O)[C@H](CO)NC(=O)[C@H](Cc1ccc(O)cc1)NC(=O)[C@H](CC(=O)O)NC(=O)[C@H](CO)NC(=O)[C@@H](NC(=O)[C@H](Cc1ccccc1)NC(=O)[C@@H](NC(=O)CNC(=O)[C@H](CCC(N)=O)NC(=O)[C@H](CO)NC(=O)[C@@H](N)Cc1c[nH]cn1)[C@@H](C)O)[C@@H](C)O)C(=O)N[C@@H](CC(=O)O)C(=O)N[C@@H](CO)C(=O)N[C@@H](CCC(=O)O)C(=O)N[C@@H](CCCNC(=N)N)C(=O)N[C@@H](C)C(=O)N[C@@H](CCCNC(=N)N)C(=O)N[C@@H](CC(=O)O)C(=O)N[C@@H](Cc1ccccc1)C(=O)N[C@H](C(=O)N[C@@H](C)C(=O)N[C@@H](Cc1c[nH]c2ccccc12)C(=O)N[C@@H](CC(C)C)C(=O)N[C@H](C(=O)N[C@@H](C)C(=O)NCC(=O)NCC(N)=O)C(C)C)C(C)C)C(=O)O` [g777] (H-HSQGTFTSDYSKYK([γGlu-Palmitoyl])DSERARDFVAWLVAGG-NH2; N-terminus assumed): the concentration giving a half-maximal response (EC50) in test [1] is 4.53 nM; in test [2], 0.00124 nM; in test [3] it was 0.0274 nM.

In the case of `CCCCCCCCCCCCCCCC(=O)N[C@@H](CCC(=O)NCCCC[C@H](NC(=O)[C@H](CC(=O)O)NC(=O)[C@H](CC(C)C)NC(=O)[C@H](Cc1ccc(O)cc1)NC(=O)[C@H](CCCCN)NC(=O)[C@H](CO)NC(=O)[C@H](Cc1ccc(O)cc1)NC(=O)[C@H](CC(=O)O)NC(=O)[C@H](CO)NC(=O)[C@@H](NC(=O)[C@H](Cc1ccccc1)NC(=O)[C@@H](NC(=O)CNC(=O)[C@H](CCC(N)=O)NC(=O)[C@H](CO)NC(=O)[C@@H](N)Cc1c[nH]cn1)[C@@H](C)O)[C@@H](C)O)C(=O)N[C@@H](CCCNC(=N)N)C(=O)N[C@@H](CCCNC(=N)N)C(=O)N[C@@H](C)C(=O)N[C@@H](CCCNC(=N)N)C(=O)N[C@@H](CC(=O)O)C(=O)N[C@@H](Cc1ccccc1)C(=O)N[C@H](C(=O)N[C@@H](C)C(=O)N[C@@H](Cc1c[nH]c2ccccc12)C(=O)N[C@@H](CC(C)C)C(=O)N[C@@H](CCC(=O)O)C(=O)N[C@@H](C)C(=O)NCC(=O)NCC(N)=O)C(C)C)C(=O)O` [g781] (H-HSQGTFTSDYSKYLDK([γGlu-Palmitoyl])RRARDFVAWLEAGG-NH2; N-terminus assumed), the figures for the concentration for a half-maximal effect (EC50) in test [1], in test [2] and in test [3] were 402 nM, 0.00285 nM and 0.104 nM, respectively.

With `CCCCCCCCCCCCCCCC(=O)N[C@@H](CCC(=O)NCCCC[C@H](NC(=O)[C@H](CCCNC(=N)N)NC(=O)[C@H](CO)NC(=O)[C@H](CC(=O)O)NC(=O)[C@H](CC(C)C)NC(=O)[C@H](Cc1ccc(O)cc1)NC(=O)[C@H](CCCCN)NC(=O)[C@H](CO)NC(=O)[C@H](Cc1ccc(O)cc1)NC(=O)[C@H](CC(=O)O)NC(=O)[C@H](CO)NC(=O)[C@@H](NC(=O)[C@H](Cc1ccccc1)NC(=O)[C@@H](NC(=O)CNC(=O)[C@H](CCC(N)=O)NC(=O)[C@H](CO)NC(=O)[C@@H](N)Cc1c[nH]cn1)[C@@H](C)O)[C@@H](C)O)C(=O)N[C@@H](C)C(=O)N[C@@H](CCCNC(=N)N)C(=O)N[C@@H](CC(=O)O)C(=O)N[C@@H](Cc1ccccc1)C(=O)N[C@H](C(=O)N[C@@H](C)C(=O)N[C@@H](Cc1c[nH]c2ccccc12)C(=O)N[C@@H](CC(C)C)C(=O)N[C@@H](CCC(=O)O)C(=O)N[C@@H](C)C(=O)NCC(=O)NCC(N)=O)C(C)C)C(=O)O` [g782] (H-HSQGTFTSDYSKYLDSRK([γGlu-Palmitoyl])ARDFVAWLEAGG-NH2; N-terminus assumed), the EC50 in test [1] was 1430 nM; in test [2], 0.156 nM; in test [3] it was 0.0254 nM.

Consider `CCCCCCCCCCCCCCCC(=O)NCCC(=O)NCCCC[C@H](NC(=O)[C@H](CO)NC(=O)[C@H](CC(=O)O)NC(=O)[C@H](CC(C)C)NC(=O)[C@H](Cc1ccc(O)cc1)NC(=O)[C@H](CCC(=O)O)NC(=O)[C@H](CO)NC(=O)[C@H](Cc1ccc(O)cc1)NC(=O)[C@H](CC(=O)O)NC(=O)[C@H](CO)NC(=O)[C@@H](NC(=O)[C@H](Cc1ccccc1)NC(=O)[C@@H](NC(=O)CNC(=O)[C@H](CCC(N)=O)NC(=O)[C@H](CO)NC(=O)[C@@H](N)Cc1c[nH]cn1)[C@@H](C)O)[C@@H](C)O)C(=O)N[C@@H](CCCNC(=N)N)C(=O)N[C@@H](C)C(=O)N[C@@H](CCCNC(=N)N)C(=O)N[C@@H](CC(=O)O)C(=O)N[C@@H](Cc1ccccc1)C(=O)N[C@H](C(=O)N[C@@H](C)C(=O)N[C@@H](Cc1c[nH]c2ccccc12)C(=O)N[C@@H](CC(C)C)C(=O)N[C@@H](CCC(=O)O)C(=O)N[C@@H](C)C(=O)NCC(=O)NCC(N)=O)C(C)C` [g783] (H-HSQGTFTSDYSEYLDSK([βAla-Palmitoyl])RARDFVAWLEAGG-NH2; N-terminus assumed), for which the EC50 in test [1] was 846 nM; in test [2] it was 0.0911 nM; in test [3], 0.0424 nM.

The record behind these values is patent publication US20200354426A1 (MEDIMMUNE LIMITED, priority 2016, published 2020).
